Source: ChEMBL document CHEMBL5308541, “MAIP: An Open-Source Tool to Enrich High-Throughput Screening Output and Identify Novel, Druglike Molecules with Antimalarial Activity” (ACS Med Chem Lett, 2023)
pIC50: −log10 of the molar value. “And” between values parts separate entries of the source, which are not always exact repeats. Identical values can stand only once.

Experiments:
Plasmodium falciparum [1] = experiment: Hit confirmation in dose-response curve in NF54 pLDH assay, at 72h; assay type: functional, organism-based, Erythrocyte; set-up: timepoint 72 hour; settings: Plasmodium falciparum, NF54, Erythrocyte, 72 h
Plasmodium falciparum [2] = experiment: Hit confirmation in dose-response curve in NF54 nanoGlo assay, at 12h; assay type: functional, organism-based, Erythrocyte; set-up: timepoint 12 hour; settings: Plasmodium falciparum, NF54, Erythrocyte, 12 h
[3] = Hit confirmation in dose-response curve in HepG2 cytotoxicity assay, at 72h; assay type: toxicity, cell-based, Homo sapiens; set-up: timepoint 72 hour; settings: human, HepG2 cells
Plasmodium falciparum [4] = experiment: Hit confirmation in dose-response curve in NF54 nanoGlo assay, at 72h; assay type: functional, organism-based, Erythrocyte; set-up: timepoint 72 hour; settings: Plasmodium falciparum, NF54, Erythrocyte, 72 h
Plasmodium falciparum [5] = experiment: Hit confirmation in dose-response curve in Dd2 pLDH assay, at 72h; assay type: functional, organism-based, Erythrocyte; set-up: timepoint 72 hour; settings: Plasmodium falciparum, Dd2, Erythrocyte, 72 h
HepG2 = experiment: Re-testing in dose-response curve in HepG2 cytotoxicity assay, at 72h; assay type: toxicity, cell-based, Homo sapiens; set-up: timepoint 72 hour; settings: hepg2
Plasmodium falciparum [6] = experiment: Re-testing in dose-response curve in 3D7 pLDH assay, at 72h; assay type: functional, organism-based, Erythrocyte; set-up: timepoint 72 hour; settings: erythrocyte

SMILES	pIC50 (Plasmodium falciparum [1])	pIC50 (Plasmodium falciparum [2])	IC50 at 72 h [3] [µM]	pIC50 (Plasmodium falciparum [4])	pIC50 (Plasmodium falciparum [5])	pIC50 (HepG2)	pIC50 (Plasmodium falciparum [6])
CC(C)c1ccc(-c2noc(CCN3CCN(CCCN(C)C)CC3)n2)cc1	< 5.00	< 5.00	> 10	5.10	5.07		
Cc1c(CN2CCC(O)(Cn3ccnc3)CC2)[nH]c2c(Cl)cccc12	5.71	5.58	> 10	5.77		4.69	5.78 and 5.88 and 5.86
Nc1cc(N2CCC(c3nc4cc(F)ccc4[nH]3)CC2)nc(N2CCOCC2)n1	5.08	< 5.00	> 10	5.06	< 5.00		
Cc1ccccc1CN1CCC(CNc2c3c(nc4ccccc24)CCC3)CC1	6.01	5.44	5.25	6.15	6.13		
NCC1(O)CCN(c2ccnc3cc(F)c(Cl)cc23)CC1	5.66	5.51	> 10	5.74	5.49		
O=C(NCCNc1ccnc2ccncc12)c1ccc(C(F)(F)F)cc1	5.24	< 5.00	> 10	5.49	5.27		
N#Cc1cccc(Cl)c1N1CCC(N2CCCC2)CC1	5.41	< 5.00	> 10	5.52	5.42		
CN(C[C@H](O)COc1ccccc1CN1CCC(c2ccncc2)CC1)C1CCCCC1	5.27	< 5.00	> 10	5.23	5.26		
Cc1ccc(-c2nnc(Nc3ccccc3)c3ccccc23)cc1CN1C(=O)c2ccccc2C1=O	< 5.00	< 5.00	> 10	5.42	5.03		
COc1cc2nc(-c3ccc(F)c4cccnc34)nc(N)c2cc1OC	5.96	5.81	1.02	6.04	5.95		
C[C@H]1CCCN(CCNC(=O)c2ccc(-c3ccc4c(=O)[nH]ccc4c3)cc2)C1	6.40	< 5.00	> 10	5.83	6.24		
COc1ccc(CNCc2cc3ccccc3[nH]2)cc1CN(C)C	5.46	5.23	> 10	5.47	5.64		
CN(C)CC12CNCC1CN(c1ccnc3cc(Cl)ccc13)C2 (configuration not stated)	7.51	7.29	> 10	7.38	7.37		
C[C@H](Nc1nc(N)c2ccccc2n1)c1cccc(-n2cncn2)c1	5.23	4.99	> 10	5.35	5.38		
CC(C)CCOc1ccc2[nH]c(-c3cc(N4CCC[C@@H]4CS(C)(=O)=O)ccn3)cc2c1	5.95	5.73	> 10	6.18	6.05		
Cc1ccn2cc(-c3ccc(N4CCC(NCc5cccnc5)CC4)cc3)nc2c1	5.28	< 5.00	> 10	5.43	5.27		
NCCCCc1c(-c2cccnc2)[nH]c2c(Cl)cc(Cl)cc12	5.35	5.16	9.55	5.35	5.39		
CNc1nc(C)c(-c2ccnc(Nc3cccc(S(C)(=O)=O)c3)n2)s1	< 5.00	< 5.00	0.78	5.55	5.19		
N[C@H]1CC[C@@H](NC2CCN(c3ccc(F)c(F)c3)CC2)CC1	5.45	5.02	7.76	5.55	5.48		
Cc1cc(C)c(CN2CCN(C)CC2)cc1CNCCCn1ccnc1C	5.41	5.13	> 10	5.41	5.47		
COc1ccc2cc(-c3cc(N)ccn3)[nH]c2c1	5.34	5.22	> 10	5.54	5.38		
O=C(NC1CCN(CCOc2ccc(Cl)cc2)CC1)c1c[nH]c2ccncc2c1=O	5.85	5.50	> 10	5.95	5.84		6.22 and 6.05
Cc1cccc(N2CCC(NCc3cc(C)cc(CN4CCN(C)CC4)c3C)CC2)c1	5.53	5.23	> 10	5.51	5.52		
CN1C2CCC1CC(OC(=O)C1CCC(C(=O)OC3CC4CCC(C3)N4C)(c3ccccc3)c3ccccc31)C2 (configuration not stated)	5.42	5.41	> 10	5.54	5.48		
